# Laboratory results as given in US12440466B2, “Fatty acid derivatives for treating non-alcoholic steatohepatitis” (BASF AS, priority 2017, dated 2025).
# Marks after values point to notes of the source that are not given here.
# Columns and labels:
# CDAA/high-fat fed mice [1] = test: Hepatic hydroxyproline (HYP) content, CDAA/high-fat diet induced NASH mouse model; format: in vivo
# Description: Mouse models that are deficient in methionine and/choline (MCD and CDAA respectively) are well established for studying the development and treatment of NASH in pre-clinical drug development. As precursors for the synthesis of phosphatidylcholine, a dietary deficiency of methionine/choline leads to an inability to synthesize hepatic lipoproteins for the export of triglyceride that results in severe hepatic steatosis, inflammation and fibrosis.
# Although the widely used methionine-choline deficient (MCD) diet consistently reproduces severe NASH-like hepatic inflammation and fibrosis in mice, it is also associated with severe weight-loss (loss of both skeletal muscle and fat mass). This is associated with an increased risk of death which presents major problems for long-term fibrogenesis experiments.
# (§1) In Biological Examples 1-7, studies were performed in male C56BL/6J mice (9 weeks old). Mice were fed either choline-sufficient (CS) or choline deficient high-fat diets (31% total calories; “CDAA/high-fat”). The NASH inducing diet was instigated 6 weeks prior to the commencement of treatment in order to design the study as a treatment/reversal set-up rather than prophylaxis.
# In Biological Examples 1-5, mice were divided into 6 experimental groups (n=9 per group) and fed either CS or CDAA/high-fat diets. After 6 weeks of either the CS- or CDAA diet, mice were orally administered Compound A or comparison Compound N, both at 2 doses, 0.15 mmol/kg bw/day (low-dose, LD) and 0.3 mmol/kg bw per day (high-dose, HD). The test substances were administered orally as admix to the high-fat diet. Hepatic fibrosis was assessed by both measurement of hydroxyproline (HYP) content and Sirius Red (SR) morphometry. Fibrosis, inflammation and metabolism related transcripts levels were measured by quantitative real-time polymerase chain reaction (qPCR).
# TNF-α mRNA = test: Hepatic TNF-α mRNA expression by qPCR, CDAA/high-fat diet mouse model; format: in vivo; settings: CDAA/high-fat fed mice
# Description: (§2) Mice were fed either choline-sufficient (CS) or choline deficient high-fat diets (31% total calories; “CDAA/high-fat”). The NASH inducing diet was instigated 6 weeks prior to the commencement of treatment in order to design the study as a treatment/reversal set-up rather than prophylaxis.
# (§3) After 6 weeks of either the CS- or CDAA diet, mice were orally administered Compound A or comparison Compound N, both at 2 doses, 0.15 mmol/kg bw/day (low-dose, LD) and 0.3 mmol/kg bw per day (high-dose, HD). The test substances were administered orally as admix to the high-fat diet. Hepatic fibrosis was assessed by both measurement of hydroxyproline (HYP) content and Sirius Red (SR) morphometry. Fibrosis, inflammation and metabolism related transcripts levels were measured by quantitative real-time polymerase chain reaction (qPCR).
# (§4) Studies were performed in male C56BL/6J mice (9 weeks old). Mice were divided into 6 experimental groups (n=9 per group) containing either CS or CDAA/high-fat diets, as described above. The NASH inducing CDAA/high fat diet was instigated 6 weeks prior to the commencement of treatment in order to assess treatment/reversal rather than prophylaxis. […] Compound A was administered orally as admix to the high-fat diet whilst GLP-1 agonist was delivered via intraperitoneal injection (i.p.). Fibrosis, inflammation and metabolism related transcripts levels were measured by quantitative real-time polymerase chain reaction (qPCR) in isolated liver tissue.
# Col1a1 mRNA = test: Hepatic Col1a1 mRNA expression by qPCR, CDAA/high-fat diet mouse model; format: in vivo; settings: CDAA/high-fat fed mice
# Description: as §2, §3, §4
# APOE*3Leiden.CETP mice [2] = test: Hepatocellular hypertrophy grading in APOE*3Leiden.CETP double transgenic mice; format: in vivo, mouse; settings: APOE*3Leiden.CETP mice on high fat/cholesterol diet; 0.3 mmol/kg bw per day by gavage; 20 weeks
# Description: The APOE*3Leiden.CETP double transgenic mouse expresses a variant of the human apolipoprotein E3 (APOE3), the APOE*3Leiden, in addition to the human apolipoprotein C1 (APOC1) and CETP. […] By increasing the cholesterol content of the diet in this model, all the characteristics of human NASH develop.
# In one study (using 1% cholesterol w/w), after a 3 weeks run-in period low-responder mice (20% of total) were removed from the study and the remaining mice were sub-divided into 4 groups of 12 mice each (+5 in the control group), matched for plasma cholesterol, triglycerides, blood glucose, body weight and age (t=0) and treatment was started. The mice received a daily gavage between 07hr00 and 10hr00 with either Compound A at 0.3 mmol/kg bw per day, the comparison compound Compound N (0.3 mmol/kg bw per day), rosiglitazone (13 mg/kg bw per day) or control (corn oil). After 20 weeks of treatment mice were sacrificed by CO2 asphyxiation, the liver was collected and the level of hepatocellular hypertrophy was graded.
# APOE*3Leiden.CETP mice [3] = settings: WO2016173923A1, cited from earlier work
# CDAA/high-fat fed mice [4] = test: Hepatic lipidomic analysis, CDAA/high-fat diet mouse model; format: in vivo; settings: Compound A 112 mg/kg bw per day or equimolar EPA, orally
# Method: as §1
# In Biological Example 7, after 6 weeks of either the CS or CDAA/high-fat diet, mice were administered 112 mg/kg bw per day of Compound A, or an equimolar dose of eicosapentaenoic acid (EPA), delivered orally. Hepatic lipidomic analysis was performed in isolated liver samples from CS (n=9), Compound A (n=9) and EPA (n=8) groups.
# To further understand the effects of Compound A on hepatic lipid metabolism, lipidomic analysis of CS- and CDAA/high-fat fed mice (“CD”) was performed in isolated liver tissue.
# [5] = test system: LX-2 human hepatic stellate cells; test: LX-2 stellate cell proliferation by BrdU incorporation; format: cell-based; settings: LX-2 cells; 24 hours; OA 75 μM
# Method: (§5) Stellate cells are resident liver cells and the major cell type involved in the initiation and progression of liver fibrosis. In Biological Example 20, in vitro studies were performed on cultured human stellate cells (LX-2 cells) to assess direct effects of Compound A on these cells. Cells were treated for 24 hours with Compound A (10 μM, 25 μM, 50 μM, or 75 μM) or oleic acid (OA; 75 μM) and bromodeoxyuridine (BrdU) incorporation was assessed to determine effects on proliferation. A MTS (3-(4,5-dimethylthiazol-2-yl)-5-(3-carboxymethoxyphenyl)-2-(4-sulfophenyl)-2H-tetrazolium) assay was used to determine cell viability.
# (§6) Cell proliferation of LX-2 human hepatic stellate cells treated for 24 hours with 10-75 μM of Compound A or oleic acid (OA) (75 μM) was assessed by BrdU incorporation. The results are normalised mean values ±S.E.M. of 5 independent experiments for icosabutate and 2 independent experiments for OA. […] The reduction in proliferation by Compound A was 25-34% at 24 hours whereas OA had no effect. The comparisons were made by one-way ANOVA with Dunnett's correction for multiple comparisons.
# [6] = test system: LX-2 human hepatic stellate cells; test: LX-2 cell viability by MTS assay; format: cell-based; settings: LX-2 cells; 24 hours; Compound A 10-75 μM, OA 75 μM
# Method: as §5, §6
# [7] = Body weight, liver weight and food intake in ob/ob AMLN mice; format: in vivo, mouse
# Method: (§7) Obese diet-induced B6.V-Lepob/Jrj mice (ob/ob) are consistently fibrosis (liver) prone when cholesterol (2%), 40% fat (containing 18% trans-fatty acids) and 20% fructose are added to a high-caloric diet (i.e., AMLN high-fat diet). ob/ob mice on AMLN diet (termed ‘ob/ob AMLN mice’) develop steatohepatitis and fibrosis within a shorter timeframe ([…]) compared with wild-type C57BL/6 mice (AMLN mice) fed the same diet. ob/ob AMLN mice provide an obese diet-induced model of NASH that also allows the study of effects on glycemic control. Development of NASH in the ob/ob AMLN model is confirmed by biopsy.
# In Biological Examples 10-12, 15, and 19, studies were performed in male ob/ob mice (5 weeks old) fed an AMLN high-fat diet for 15 weeks, then randomized into 3 groups (n=10 per group) to receive either 112 mg/kg bw per day of Compound A via diet, 30 mg/kg bw per day pioglitazone via diet or no treatment (vehicle) for a further 4 weeks. An oral glucose tolerance test (OGTT) was performed at week 3. Hepatic fibrosis was assessed via measurements of hepatic fibrogenic/fibrolytic gene expression by RNA sequencing at 4 weeks.
# (§8) In Biological Examples 10, 13-14, and 16-18, studies were performed in male ob/ob mice (5 weeks old) fed an AMLN high-fat diet for 18 weeks, then randomized into 6 groups (n=10 per group) to receive either Compound A (at 3 different daily doses, 45 mg/kg, 90 mg/kg or 135 mg/kg) via diet, 30 mg/kg bw per day obeticholic acid (OCA) via diet, or no treatment (vehicle) for a further 8 weeks. Assessment of NASH related parameters and fibrosis was made at study end by quantitative immune histochemistry (IHC) measurements.
# [8] = test system: α-smooth muscle actin (SMA); test: Hepatic α-SMA content by quantitative IHC in ob/ob AMLN mice; format: in vivo, mouse; settings: 8 weeks, OCA 30 mg/kg
# Method: as §7, §8
# col1A1 = test: Hepatic col1A1 content by quantitative IHC in ob/ob AMLN mice; format: in vivo, mouse; settings: 8 weeks, OCA 30 mg/kg
# Method: as §7, §8
# ob/ob AMLN mice = test: Plasma ALT and AST (hepatocellular damage) in ob/ob AMLN mice; format: in vivo, mouse; settings: 8 weeks, OCA 30 mg/kg
# Method: as §7, §8
# To assess the effects of Compound A and pioglitazone on hepatocellular injury or damage in ob/ob AMLN mice, plasma alanine aminotransferase (ALT) and aspartate transaminase (AST) were measured after 8 weeks of administration.
# STAM (model) mice [9] = test: NAFLD activity score (NAS) in streptozotocin/high-fat diet NASH model (STAM model); format: in vivo, mouse; settings: 6 weeks treatment, Compound A 37 mg/kg/day oral gavage, telmisartan positive control
# Description: (§9) In Biological Example 8, pathogen-free 15-day-pregnant C57BL/6 mice were obtained from Charles River Laboratories in Japan Inc. (Kanagawa, Japan). NASH was established in male mice by a single subcutaneous injection of streptozotocin (STZ) (Sigma, USA) after birth and feeding with a high fat diet (HFD; CLEA) Japan, Japan) ad libitum after 4 weeks of age (day 28±2). Mice were randomised into 3 groups of 8 mice at 6 weeks of age the day before the start of treatment: vehicle (saline), Compound A and telmisartan (positive control). Treatment with Compound A at a dose of 37 mg/kg bw per day via oral gavage in conjunction with a high-fat diet was given for 6 weeks before sacrifice. NAFLD activity score (NAS) was calculated according to standardised criteria and fibrosis area was assessed via Sirius Red staining.
# STAM (model) mice [10] = test: Fibrosis area by Sirius Red staining, STAM model; format: in vivo, mouse; settings: Sirius Red positive area, 6 weeks treatment, Compound A 37 mg/kg/day oral gavage
# Description: as §9
# [11] = 8 weeks, Compound A 45, 90 and 135 mg/kg, OCA 30 mg/kg bw per day
compound,measurement,setting,value
"CC/C=C\C/C=C\C/C=C\C/C=C\C/C=C\CCCCSC(CC)(CC)C(=O)O [Compound N, 2-ethyl-2-((5Z,8Z,11Z,14Z,17Z)-icosa-5,8,11,14,17-pentaenylthio)butanoic acid, reference compound]",Hydroxyproline (μg) content per 100 mg liver,CDAA/high-fat fed mice [1]; HD 0.3 mmol/kg bw per day orally as admix to diet,54 μg HYP/per 100 mg liver
same,Hydroxyproline (μg) content per 100 mg liver,CDAA/high-fat fed mice [1]; LD 0.15 mmol/kg bw/day orally as admix to diet,48 μg HYP/per 100 mg liver
same,Hydroxyproline (μg) content per liver,CDAA/high-fat fed mice [1]; high dose (HD) 0.3 mmol/kg bw per day orally as admix to diet,950 µg
same,Hydroxyproline (μg) content per liver,CDAA/high-fat fed mice [1]; low dose (LD) 0.15 mmol/kg bw/day orally as admix to diet,1100 µg
same,TNF-a (relative mRNA expression),TNF-α mRNA; HD 0.3 mmol/kg bw per day,1.2
same,TNF-a (relative mRNA expression),TNF-α mRNA; LD 0.15 mmol/kg bw/day,1***
same,Col1a1 (relative mRNA expression),Col1a1 mRNA; HD 0.3 mmol/kg bw per day,16
same,Col1a1 (relative mRNA expression),Col1a1 mRNA; LD 0.15 mmol/kg bw/day,15
same,Decrease in hypertrophy vs. control (%),APOE*3Leiden.CETP mice [2],7%
same,Hepatocellular hypertrophy,APOE*3Leiden.CETP mice [2],42.9 ± 29.7
same,fibrosis (hydroxyproline/proline ratio),APOE*3Leiden.CETP mice [3]; APOE*3Leiden.CETP mice,had efficacy in reducing fibrosis
same,influx of inflammatory cells into the liver,APOE*3Leiden.CETP mice [3],prevented the influx of inflammatory cells into the liver
"CC/C=C\C/C=C\C/C=C\C/C=C\C/C=C\CCCC(=O)O [EPA, (5Z,8Z,11Z,14Z,17Z)-icosa-5,8,11,14,17-pentaenoic acid, reference compound]",hepatic cholesteryl ester,CDAA/high-fat fed mice [4],did not reduce
same,hepatic diglycerides (DG),CDAA/high-fat fed mice [4],did not reduce
same,hepatic free fatty acids (FFA),CDAA/high-fat fed mice [4],did not reduce
same,hepatic triglyceride (TG),CDAA/high-fat fed mice [4],did not reduce
"CCCCCCCC/C=C\CCCCCCCC(=O)O [OA, oleic acid, reference compound]",proliferation (BrdU incorporation),[5],no effect
same,cell viability (MTS assay),[6],neither Compound A nor OA showed a significant effect
"CC[C@H]1[C@@H](O)[C@@H]2[C@H](CC[C@]3(C)[C@@H]([C@H](C)CCC(=O)O)CC[C@@H]23)[C@@]2(C)CC[C@@H](O)C[C@@H]12 [OCA, reference compound]",body weight,[7]; [11],"neither Compound A (45 mg/kg, 90 mg/kg, and 135 mg/kg) nor OCA significantly affected body weight"
same,food intake,[7]; [11],not affected
same,area percentage of α-SMA content compared to pre-treatment biopsy,[8],no significant effect
same,total col1A1 content,col1A1,no significant effect
same,plasma ALT,ob/ob AMLN mice,no effect
same,plasma AST,ob/ob AMLN mice,no effect
"CCCc1nc2c(C)cc(-c3nc4ccccc4n3C)cc2n1Cc1ccc(-c2ccccc2C(=O)O)cc1 [Telmisartan, reference compound]",Hepatocellular ballooning,STAM (model) mice [9],0.8
same,Lobular inflammation,STAM (model) mice [9],0.45
same,NAS score (mean ± SD),STAM (model) mice [9],1.8 ± 0.8
same,Steatosis,STAM (model) mice [9],0.7
same,Fibrosis area (%),STAM (model) mice [10],0.44%
"CCc1ccc(CCOc2ccc(CC3SC(=O)NC3=O)cc2)nc1 (stereo not drawn) [pioglitazone, reference compound]",increase in bodyweight,"[7]; 4 weeks, pioglitazone 30 mg/kg bw per day, p<0.01",15%
